Results from the supplement of paper PMC10307832.

Legend:
Experiment in all cases: relative viability (nuclei count vs DMSO), 5 days (fraction); higher = more cells survive
[1] = system: NCI-H2023
How it was run: (§1)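 Medians of duplicate plates are given as relative viability. That measure is the nuclei count in treated wells divided by the count in vehicle wells. Counts were taken on 4× images of lung cancer cell lines in 1536-well plates, 5 days after pin-tool dosing the day after seeding with one drug alone or a fixed anchor-drug dose plus five library-drug doses (not always all listed) in √10 steps.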

[2] = system: LU99A
How it was run: as §1

[3] = system: HCC-78
How it was run: as §1

[4] = system: NCI-H1651
How it was run: as §1

[5] = system: UMC-11
How it was run: as §1

[6] = system: SW 1573
How it was run: as §1

[7] = system: NCI-H2085
How it was run: as §1

[8] = system: NCI-H650
How it was run: as §1

[9] = system: LC-2-ad
How it was run: as §1

[10] = system: HARA
How it was run: as §1

[11] = system: NCI-H1993
How it was run: as §1

[12] = system: NCI-H1355
How it was run: as §1

[13] = system: COR-L23
How it was run: as §1

[14] = system: ABC-1
How it was run: as §1

[15] = system: EPLC-272H
How it was run: as §1

[16] = system: NCI-H1915
How it was run: as §1

[17] = system: HCC-15
How it was run: as §1

[18] = system: NCI-H358
How it was run: as §1

[19] = system: NCI-H2126
How it was run: as §1

[20] = system: PC-14
How it was run: as §1

[21] = system: NCI-H838
How it was run: as §1

[22] = system: NCI-H2347
How it was run: as §1

C=C1C(=O)O[C@@H](CCCCCCCC)[C@@H]1C(=O)O [C-75] + C[C@]1(O)C[C@@H](c2nc(-c3ccc4ccc(-c5ccccc5)nc4c3)c3c(N)nccn32)C1 [Linsitinib] (partner 1 µM)
relative viability ([1]; first compound 0.08 µM): 0.701
relative viability ([1]; first compound 0.253 µM): 0.824
relative viability ([1]; first compound 0.8 µM): 0.473
relative viability ([1]; first compound 2.53 µM): 0.658
relative viability ([1]; first compound 8 µM): 0.753
relative viability ([2]; first compound 0.08 µM): 0.571
relative viability ([2]; first compound 0.253 µM): 0.598
relative viability ([2]; first compound 0.8 µM): 0.528
relative viability ([2]; first compound 2.53 µM): 0.412
relative viability ([2]; first compound 8 µM): 0.464
relative viability ([3]; first compound 0.08 µM): 0.642
relative viability ([3]; first compound 0.253 µM): 0.443
relative viability ([3]; first compound 0.8 µM): 0.493
relative viability ([3]; first compound 2.53 µM): 0.437
relative viability ([3]; first compound 8 µM): 0.522
relative viability ([4]; first compound 0.08 µM): 1.06
relative viability ([4]; first compound 0.253 µM): 1.07
relative viability ([4]; first compound 0.8 µM): 1.08
relative viability ([4]; first compound 2.53 µM): 0.975
relative viability ([4]; first compound 8 µM): 0.964
relative viability ([5]; first compound 0.08 µM): 0.91
relative viability ([5]; first compound 0.253 µM): 1.09
relative viability ([5]; first compound 0.8 µM): 1.01
relative viability ([5]; first compound 2.53 µM): 0.821
relative viability ([5]; first compound 8 µM): 0.891
relative viability ([6]; first compound 0.08 µM): 0.819
relative viability ([6]; first compound 0.253 µM): 0.962
relative viability ([6]; first compound 0.8 µM): 0.833
relative viability ([6]; first compound 2.53 µM): 0.615
relative viability ([6]; first compound 8 µM): 0.705
relative viability ([7]; first compound 0.08 µM): 0.935
relative viability ([7]; first compound 0.253 µM): 0.801
relative viability ([7]; first compound 0.8 µM): 0.88
relative viability ([7]; first compound 2.53 µM): 0.806
relative viability ([7]; first compound 8 µM): 0.792
relative viability ([8]; first compound 0.08 µM): 0.922
relative viability ([8]; first compound 0.253 µM): 0.801
relative viability ([8]; first compound 0.8 µM): 0.608
relative viability ([8]; first compound 2.53 µM): 0.718
relative viability ([8]; first compound 8 µM): 0.766
relative viability ([9]; first compound 0.08 µM): 0.869
relative viability ([9]; first compound 0.253 µM): 0.865
relative viability ([9]; first compound 0.8 µM): 0.798
relative viability ([9]; first compound 8 µM): 0.855
relative viability ([10]; first compound 0.08 µM): 0.861
relative viability ([10]; first compound 0.253 µM): 0.954
relative viability ([10]; first compound 0.8 µM): 0.915
relative viability ([10]; first compound 8 µM): 0.97
relative viability ([11]; first compound 0.08 µM): 0.705
relative viability ([11]; first compound 0.253 µM): 0.773
relative viability ([11]; first compound 0.8 µM): 0.751
relative viability ([11]; first compound 2.53 µM): 0.744
relative viability ([11]; first compound 8 µM): 0.763
relative viability ([12]; first compound 0.08 µM): 0.849
relative viability ([12]; first compound 0.253 µM): 0.803
relative viability ([12]; first compound 0.8 µM): 0.806
relative viability ([12]; first compound 2.53 µM): 0.805
relative viability ([12]; first compound 8 µM): 0.825
relative viability ([13]; first compound 0.08 µM): 0.935
relative viability ([13]; first compound 0.253 µM): 0.907
relative viability ([13]; first compound 0.8 µM): 0.856
relative viability ([13]; first compound 2.53 µM): 0.632
relative viability ([13]; first compound 8 µM): 0.909
relative viability ([14]; first compound 0.08 µM): 0.85
relative viability ([14]; first compound 0.253 µM): 0.854
relative viability ([14]; first compound 0.8 µM): 0.705
relative viability ([14]; first compound 2.53 µM): 0.764
relative viability ([14]; first compound 8 µM): 0.552
relative viability ([15]; first compound 0.08 µM): 1.05
relative viability ([15]; first compound 0.253 µM): 1.23
relative viability ([15]; first compound 0.8 µM): 1.07
relative viability ([15]; first compound 2.53 µM): 0.976
relative viability ([15]; first compound 8 µM): 1.11
relative viability ([16]; first compound 0.08 µM): 1.2
relative viability ([16]; first compound 0.253 µM): 1.17
relative viability ([16]; first compound 0.8 µM): 0.993
relative viability ([16]; first compound 2.53 µM): 1.05
relative viability ([16]; first compound 8 µM): 1.07
relative viability ([17]; first compound 0.08 µM): 0.926
relative viability ([17]; first compound 0.253 µM): 0.978
relative viability ([17]; first compound 0.8 µM): 0.924
relative viability ([17]; first compound 2.53 µM): 0.847
relative viability ([17]; first compound 8 µM): 0.902
relative viability ([18]; first compound 0.08 µM): 0.734
relative viability ([18]; first compound 0.253 µM): 0.823
relative viability ([18]; first compound 0.8 µM): 0.7
relative viability ([18]; first compound 2.53 µM): 0.602
relative viability ([18]; first compound 8 µM): 0.737
relative viability ([19]; first compound 0.08 µM): 0.698
relative viability ([19]; first compound 0.253 µM): 0.783
relative viability ([19]; first compound 0.8 µM): 0.703
relative viability ([19]; first compound 2.53 µM): 0.683
relative viability ([19]; first compound 8 µM): 0.711
relative viability ([20]; first compound 0.08 µM): 0.956
relative viability ([20]; first compound 0.253 µM): 0.818
relative viability ([20]; first compound 0.8 µM): 1.03
relative viability ([20]; first compound 2.53 µM): 0.778
relative viability ([20]; first compound 8 µM): 0.939
relative viability ([21]; first compound 0.08 µM): 0.935
relative viability ([21]; first compound 0.253 µM): 0.706
relative viability ([21]; first compound 0.8 µM): 1.01
relative viability ([21]; first compound 2.53 µM): 0.943
relative viability ([21]; first compound 8 µM): 0.836
relative viability ([22]; first compound 0.08 µM): 1.01
relative viability ([22]; first compound 0.253 µM): 0.959
relative viability ([22]; first compound 0.8 µM): 0.598
relative viability ([22]; first compound 2.53 µM): 0.88
relative viability ([22]; first compound 8 µM): 1.07
